# Reference: patent US4340602A, “Compositions inhibiting estrogen sulfotransferase activity” (Wayne State University, priority 1978, dated 1982)
# Several values for one entry are separate records, joined by “and”; a condition that tells them apart may be missing. Equal values may be shown once.
# How the values were obtained:
# in vitro = in vitro ADME, porcine; details: pig, minced uterus
# Source text: (§1) Animals. Gilts (virgin female pigs) or sows (previously pregnant pigs) in estrus from the pig farm at Michigan State University were mated with boars of established fertility. Following insemination, the females were sacrificed at various times up to 25 days later. Uteri were removed and immediately chilled on ice. Fertilization was confirmed initially by microscopic examination of oviductal washings for fertilized ova (2-5 days following insemination) by histological inspection of the corpus luteum and uterus (8-13 days) and later (17-25 days) by gross inspection of the uterus for the amniotic sac and fetuses.
# (§2) Radioisotopes. [6,7-^3 H]E2 (45 Ci/mmol) was obtained from New England Nuclear Corp., Boston, Mass., and purified on ITLC-SA (Gelman Instrument Co.) with CHCl3 :CH3 OH (97:3) as the developing solvent. Na2^35 SO4 (800-1000 mCi/mmol) was obtained from New England Nuclear Corp. and used directly from the bottle.
# (§3) Incubation and isolation of [^3 H]E2 and Na2^35 SO4 metabolites. Samples of whole uterus (400 mg), minced in 0.9% saline, were filtered over medium coarse nylon gauze and placed in 2.5 ml of a modified Krebs-Ringer bicarbonate buffer (MgCl2 instead of MgSO4) with glucose (1.5 mg/ml). After the [6,7-^3 H]E2 (3×10^-9 M) and Na2^35 SO4 (1×10^-4 M) were added, the mixture was incubated for 2 hr at 37° C. under […]. The incubate was then boiled for 2 min. to stop the enzymatic reactions. A control was included with each experiment, which contained all of the incubation mixture, and was carried throughout the entire procedure except for the actual incubation.
# (§4) The filtered tissue was extracted in 2:1 CHCl3 :CH3 OH (10 ml) for 2 hr, and this extract, reduced almost to dryness, was recombined with the incubation supernatant. This combination in turn was extracted with ethyl acetate (2.5 ml, 3 times) at neutral pH in the presence of (NH4)2 SO4 (0.5 g/ml). The concentrated extract was applied to an alumina column in benzene. After the column was washed with benzene, the unconjugated estrogens were eluted with 100 ml ethanol and the estrogen sulfates with ethanol:water (1:1, 100 ml). The conjugated fraction was further separated from trailing free estrogens by a single development of instant thin layer chromatography (SG; chloroform:acetone:acetic acid, 110:35:6). Marker estrogen sulfates run simultaneously were identified by staining with 50% methylene blue reagent (25 mg % methylene blue in 0.05 N sulfuric acid) in acetone.
# (§5) The estrogen sulfates were hydrolyzed with aryl sulfatase^3 (5 mg/10 ml) in 0.1 M sodium acetate buffer (pH 5) for two days at 37° C. (without shaking or mixing) and the estrogen moiety extracted into ether. Both the unconjugated estrogens and those hydrolyzed from sulfate esters were further purified by the procedure of Brooks et al, Biochim. Biophys. Acta, 104:250-260 (1965) and the metabolites identified and quantitated on instant thin layer chromatography (SA; chloroform:methanol, 97:3) in accordance with Pack et al (1974), supra.
# [1] = test system: uteri obtained from fertilized pigs; assay: in vitro; type: in vitro ADME, porcine; details: 0.003 µM
# Source text: as §1, §2, §3, §4, §5
# human endometrium = assay: Oxidation and sulfurylation of tritiated E2 by human endometrial curettings; type: in vitro ADME; details: 0.003 µM
# Method: (§6) Radioisotopes. [6,7-^3 H]E2 and [2,4,6,7-^3 H]E2 were obtained from New England Nuclear Corp., Boston, Mass., and purified on ITLC-SA (Gelman Instrument Co.) with CHCl3 :CH3 OH (97:3) as the developing solvent. Na2^35 SO4 was obtained from New England Nuclear Corp. and used directly from the bottle.
# (§7) Human endometria. Endometrial specimens (60-1500 mg) were gathered from the operating room at the time of surgery and placed in 0.9% saline solution on ice. Most patients (22) were young women undergoing tubal ligations for the purpose of sterilization, two patients were having IUD's removed and eight patients (hysterectomies and laparoscopies) had normal endometria upon histological examination. All had had at least one pregnancy, had no endocrine problems, were cycling normally and were not taking any drugs, except for two patients on Librium® and two on Aldoril®. Ages ranged from 23 to 48 years, the average being 31±5 years.
# (§8) Metabolism. Amounts varying from 55 to 400 mg of endometrium were incubated in 2.5 ml of modified bicarbonate buffer with 10 μl of [6,7-^3 H]E2 (3×10^-9 M) and 100 μl of Na2^35 SO4 (1×10^-4 M). The remainder of the procedure was the same as described for gilt uterus in Example 2
# [2] = as above; type: in vitro ADME; details: human, endometrium, Table IV, 2 h, 3×10^-9 M E2
# Method: as §6, §7, §8
# [3] = test system: uteri obtained from fertilized pigs; details: average, uteri undergoing normal estrous cycle, regardless of phase; 0.003 µM; cited from earlier work
structure (smiles),measurement,setting,value
"C[C@]12CC[C@@H]3c4ccc(O)cc4CC[C@H]3[C@@H]1CC[C@@H]2O [1,3,5(10)Estratriene-3,17β-diol]","metabolised at 2 h, 0.003 µM","in vitro; 2-hour incubation, day of insemination, read-out: sulfurylation of the 3-hydroxyl group, day of insemination",3%
same,"metabolised at 2 h, 0.003 µM","in vitro; Table III mean line (SD ± 5.7 on next line), read-out: Percent of added E2 found as Free E1, mean",16.6%
same,"metabolised at 2 h, 0.003 µM","in vitro; Table III, 25 (A), anovulatory gilt, 2 h incubation, read-out: Percent of added E2 found as Total E1, anovulatory gilt",12.9%
same,sulfurylation in gilt uterus,"[1]; 2-hour incubation, 5 to 23 days following fertilization, P<0.05 vs sow",57.2±8.9%
same,sulfurylation in sow uterus,"[1]; 2-hour incubation, 8 to 25 days following fertilization, P<0.05 vs gilt",41.2±6.0%
same,"Percent of added E2 found as E1 S, mean","[1]; Table III mean line, days 5-25 (SD ± 6.4)",32.6%
same,"Percent of added E2 found as Total E1, mean","[1]; Table III mean line, days 5-25 (SD ± 10.1)",49.8%
same,Percent of added E2 found as Free E1,"[1]; Table III, 2 h incubation, 3×10^-9 M [3H]E2, by days following fertilization (S sow, G gilt), listed as E2, 120 min",16.4%
same,conversion of added labeled E2 to E1,"[1]; metestrus, uteri from fertilized pigs",13.6%
same,"Percent of tritiated E2 sulfurylated, proliferative","human endometrium; Table IV, proliferative days 4-7, 55, 118, 329 mg tissue by row, 2 h, 3×10^-9 M E2",0%
same,"Percent of tritiated E2 oxidized to estrone, proliferative","human endometrium; Table IV, proliferative days 4-7, 55, 118, 329 mg tissue by row, 2 h, 3×10^-9 M E2, listed as E2, 120 min",47% and 45%
same,"Percent of tritiated E2 oxidized to estrone (E1 + E1 sulfate), secretory","human endometrium; Table IV, secretory day 24, 60, 120, 300 mg tissue by row, 2 h, 3×10^-9 M E2, listed as E2, 120 min",82%
same,"oxidation of labeled E2 to E1 plus E1 sulfate, days 14 and 15","human endometrium; same three endometrial curettings, days 14 and 15, listed as E2, 0.003 µM",70% and 75% and 93%
same,"metabolised at 2 h, 0.003 µM","[2]; proliferative days 4-7, 55, 118, 329 mg tissue by row, read-out: Percent of tritiated E2 oxidized to estrone, proliferative",29%
same,"metabolised at 2 h, 0.003 µM","[2]; secretory day 24, 60, 120, 300 mg tissue by row, read-out: Percent of tritiated E2 oxidized to estrone (E1 + E1 sulfate), secretory",78%
same,"added E2 found as free E1, normal estrous cycle",[3],18.7±7.2%
